Data from patent US12162878B2 (HINOVA PHARMACEUTICALS INC., priority 2018, dated 2024).

Experiments:
Format in all cases: cell-based, human
CWR22RV1 cells [1] = test: Inhibition of proliferation of CWR22RV1 cells (CCK-8); conditions: Homo sapiens, CWR22Rv1, 144 h, 6 days
In short: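 Cells seeded at 1500/well, cultured overnight, then exposed to compounds in 3-fold dilutions (9 concentrations from 10 μM top final, 0.1% DMSO) for 6 days at 37 °C. Viability read by CCK-8 absorbance at 450 nm after 2.5 h; IC50 from dose-response inhibition fit.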

MCF-7 cells = test: Inhibition of proliferation of MCF-7 cells (CCK-8)
Protocol: (§1) • MCF-7 cell line (Cell Bank of Chinese Academy of Sciences, TCHu74) • FBS (Gibco, Cat. No. 10099-141) • 0.01M PBS (Biosharp, Cat. No. 162262) • RIPM1640 (Hyclone, Cat. No. 308090.01) • Penicillin-Streptomycin (Hyclone, Cat. No. SV30010) • Cell counting kit-8 (Signalway Antibody, Cat. No. CP002) • DMSO (Sigma, Cat. No. D5879) • Centrifuge Tube, 15 ml (Excell Bio, Cat. No. CS015-0001) • Cell Culture Dish, (Excell Bio, Cat. No. CS016-0128) • 96-well cell culture cluster (Corning, Cat. No. 3599) 3. Experimental Method
1) MCF-7 cells were subcultured in cell culture media, and the cells in good growth condition were seeded in a 96-well plate, 80 μL for each well, thus the number of cells per well was 1000, then the plate was cultured overnight in a 37° C., 5% CO2 cell incubator.
(§2) 2) The drug was prepared with dimethyl sulfoxide (DMSO) as a 10 mM stock solution. Prior to use, the solution was diluted 3 times with DMSO, and then diluted with a 3-fold gradient to obtain 9 concentration gradients. Then, each concentration of the compound was further diluted 200 times with the culture media (to ensure that DMSO concentration in the culture system was 0.1%), 2 repeat wells for each concentration. The diluted solution of each compound (20 μL) was added to the cell culture well (with a final concentration of 10 μM, 3.3 μM, 1.1 μM . . . ), and shaken gently for mixing.
In addition, three negative control wells containing only cells and three blank control wells containing only culture medium (20 μL DMSO diluted 200 times with culture medium being added to six wells) were included.
(§3) (1) After culturing for 6 days, 10 μL CCK-8 was added to each well and cultured for additional 2.5 h in a 37° C., 5% CO2 cell incubator.
(§4) (2) The absorbance (OD value) at 450 nm was measured with a multifunctional microplate reader.
(§5) (3) The data was analyzed by the Dose-response-inhibition equation in the software GraphPad Prism6, and the IC50 value was obtained.

MDA-MB-231 cells = test: Inhibition of proliferation of MDA-MB-231 cells (CCK-8)
Protocol: as §1, with “MDA-MB-231” for “MCF-7”, “TCHu104)” for “TCHu74)”
1) MDA-MB-231 cells were subcultured in cell culture media, and the cells in good growth condition were seeded in a 96-well plate, 80 μL for each well, thus the number of cells per well was 1500, then the plate was cultured overnight in a 37° C., 5% CO2 cell incubator.
as §2, with “mixing. In addition, three negative control wells containing only cells and three blank control wells containing only culture medium (20 μL DMSO diluted 200 times with culture medium being added to six wells) were included.” for “mixing.”
as §3, §4, §5

MDA-MB-453 cells = test: Inhibition of proliferation of MDA-MB-453 cells (CCK-8); conditions: Homo sapiens, 144 h, 6 days, CCK-8
Protocol: as §1, with “MDA-MB-453” for “MCF-7”, “TCHu35)” for “TCHu74)”
1) MDA-MB-453 cells were subcultured in cell culture media, and the cells in good growth condition were seeded in a 96-well plate, 80 μL for each well, thus the number of cells per well was 1500, then the plate was cultured overnight in a 37° C., 5% CO2 cell incubator.
as §2, with “mixing. In addition, three negative control wells containing only cells and three blank control wells containing only culture medium (20 μL DMSO diluted 200 times with culture medium being added to six wells) were included.” for “mixing.”
as §3, §4, §5

Vcap cells [2] = test: Inhibition of proliferation of Vcap cells (CCK-8)
Protocol: as §1, with “Vcap” for “MCF-7”, “TCHu220)” for “TCHu74)”, “DMEM HIGH Glucose” for “RIPM1640”, “SH30243.01)” for “308090.01)”, “2.” for “3.”
1) Vcap cells were subcultured in cell culture media, and the cells in good growth condition were seeded in a 96-well plate, 80 μL for each well, thus the number of cells per well was 10000, then the plate was cultured overnight in a 37° C., 5% CO2 cell incubator.
as §2, with “mixing. In addition, three negative control wells containing only cells and three blank control wells containing only culture medium (20 μL DMSO diluted 200 times with culture medium being added to six wells) were included.” for “mixing.”
as §3, §4, §5

CWR22RV1 cells [3] = test: Compound in combination with androgen receptor inhibitor HC-1119, proliferation of CWR22RV1 cells (CCK-8); conditions: for IC50: Homo sapiens, CWR22Rv1, 144 h, 6 days, read-out: IC50 for inhibition on the activity of CWR22RV1
Protocol: as §1, with “CWR22RV1” for “MCF-7”, “TCHu100)” for “TCHu74)”, “3599)” for “3599) 3.”, “Method:” for “Method”
1) CWR22RV1 cells were subcultured in cell culture media, and the cells in good growth condition were seeded in a 96-well plate, 60 μL for each well, thus the number of cells per well was 2000, then the plate was cultured overnight in a 37° C., 5% CO2 cell incubator.
(§6) 2) The drug was prepared with dimethyl sulfoxide (DMSO) as a 10 mM stock solution. Prior to use, the solution was diluted 3 times with DMSO, and then diluted with a 3-fold gradient to obtain 9 concentration gradients. Then, each concentration of the compound was further diluted 200 times with the culture media (to ensure that DMSO concentration in the culture system was 0.1%), 2 repeat wells for each concentration. The diluted solution of each compound (20 μL) was added to the cell culture well (with a final concentration of 10 μM, 3.3 μM, 1.1 μM . . . ); while the solution of HC-1119 was diluted with culture media to the concentrations of 50 μM and 15 μM, respectively, and the diluted solution of HC-1119 was added to the corresponding cell culture well (with a final concentration of 10 μM, 3 μM), then shaken gently for mixing. In addition, three negative control wells containing only cells and three blank control wells containing only culture media (20 μL DMSO diluted 200 times with culture media being added to six wells) were included.
as §3, §4, §5

Vcap cells [4] = test: Compound in combination with androgen receptor inhibitor HC-1119, proliferation of Vcap cells (CCK-8); conditions: for IC50: Homo sapiens, VCaP, 144 h, 6 days, read-out: IC50 for inhibition on the activity of Vcap
Protocol: as §1, with “Vcap” for “MCF-7”, “TCHu220)” for “TCHu74)”, “DMEM HIGH Glucose” for “RIPM1640”, “SH30243.01)” for “308090.01)”, “Dish” for “Dish,”, “2.” for “3.”
1) Vcap cells were subcultured in cell culture media, and the cells in good growth condition were seeded in a 96-well plate, 60 μL for each well, thus the number of cells per well was 10000, then the plate was cultured overnight in a 37° C., 5% CO2 cell incubator.
as §6, with “10 μM, 1 μM), then” for “10 μM, 3 μM), then”
as §3, §4, §5

[5] = Homo sapiens, 144 h, 6 days, CCK-8

Cn1cc(-c2cc(S(C)(=O)=O)ccc2N2CCC3(CC2)CC3(F)F)c2cc[nH]c2c1=O [Compound 178, 4-(2-(1,1-difluoro-6-aza-spiro[2.5]octan-6-yl)-5-(methylsulfonyl)phenyl)-6-methyl-1H-pyrrolo[2,3-c]pyridin-7(6H)-one]
IC50 (CWR22RV1 cells [1]): 5 nM | inhibitory action on MCF-7 cells (in words) (MCF-7 cells): effective inhibitory action | IC50 (MCF-7 cells; Homo sapiens, MCF7, 144 h, 6 days, CCK-8): 29 nM | inhibitory action on MDA-MB-231 cells (in words) (MDA-MB-231 cells): effective inhibitory action | IC50 (MDA-MB-231 cells; [5]): 39 nM | IC50 (MDA-MB-453 cells): 720 nM

[2H]C([2H])([2H])n1cc(-c2cc(S(=O)(=O)CC)ccc2N2CCC3(CC2)CC3(F)F)c2cc[nH]c2c1=O [Compound 231, 4-(2-(1,1-difluoro-6-aza-spiro[2.5]octan-6-yl)-5-(ethylsulfonyl)phenyl)-6-trideuteromethyl-1H-pyrrolo[2,3-c]pyridin-7(6H)-one]
inhibitory action on Vcap cells (in words) (Vcap cells [2]): effective inhibitory action | IC50 (Vcap cells [2]; [5]): 3.9 nM | IC50 (CWR22RV1 cells [3]; compound alone, CWR22RV1 cells): 1.8 nM | IC50 (CWR22RV1 cells [3]; in combination with 3 μM HC-1119, CWR22RV1 cells): 0.65 nM | IC50 (CWR22RV1 cells [3]; in combination with 10 μM HC-1119, CWR22RV1 cells): 0.51 nM | effect of combination with HC-1119 on inhibitory action on CWR22RV1 cells (in words) (CWR22RV1 cells [3]; in combination with HC-1119, CWR22RV1 cells): improve the inhibitory action | IC50 (Vcap cells [4]; compound alone, Vcap cells): 3.9 nM | IC50 (Vcap cells [4]; in combination with 1 μM HC-1119, Vcap cells): 0.076 nM | IC50 (Vcap cells [4]; in combination with 10 μM HC-1119, Vcap cells): 0.027 nM | effect of combination with HC-1119 on inhibitory action on Vcap cells (in words) (Vcap cells [4]; in combination with HC-1119, Vcap cells): improve the inhibitory action
